Assay results reported in publication PMC2692672 (Journal of molecular biology, 2009).

Target: GRP94 (Canis lupus, UniProt P41148, DEL287-327)
Test: co-crystal structure
Assay type: binding

In the case of `COC(=O)c1c(O)cc(O)c(Cl)c1CCC(=O)NC1=CC(=O)C(OC)=CC1=O` [Radamide], the Kd is reported as 520 ± 130 nM.
